Results: ChEMBL document CHEMBL1909046, “DrugMatrix in vitro pharmacology data”

Assays:
[1] = biological target: T1, Alpha-1B adrenergic receptor (Rattus norvegicus, UniProt P15823); assay: DRUGMATRIX: Alpha-1B adrenergic receptor radioligand binding (ligand: prazosin); assay type: cell membranes, Wistar, Liver, Membrane; details: Not Active = under 50% inhibition at 10 µM
T1 sequence (P15823 whole entry): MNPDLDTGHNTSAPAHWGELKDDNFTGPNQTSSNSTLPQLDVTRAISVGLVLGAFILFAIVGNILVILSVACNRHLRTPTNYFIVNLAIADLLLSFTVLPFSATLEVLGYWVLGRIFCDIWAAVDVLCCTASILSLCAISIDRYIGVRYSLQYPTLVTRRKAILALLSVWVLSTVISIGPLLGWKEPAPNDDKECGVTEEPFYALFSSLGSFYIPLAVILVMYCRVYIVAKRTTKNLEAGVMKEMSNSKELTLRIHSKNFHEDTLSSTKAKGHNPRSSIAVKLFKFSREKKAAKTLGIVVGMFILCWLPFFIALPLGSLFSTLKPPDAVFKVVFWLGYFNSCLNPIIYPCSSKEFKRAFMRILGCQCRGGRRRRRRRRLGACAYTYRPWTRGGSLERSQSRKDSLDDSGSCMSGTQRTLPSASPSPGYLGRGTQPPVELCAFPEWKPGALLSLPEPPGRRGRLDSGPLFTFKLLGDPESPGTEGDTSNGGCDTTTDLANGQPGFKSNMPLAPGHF

[2] = DRUGMATRIX: Calcium Channel Type L, Benzothiazepine radioligand binding (ligand: [3H] Diltiazem); assay type: cell membranes, Rattus norvegicus, Wistar, Brain, Membrane; details: Not Active = under 50% inhibition at 10 µM
[3] = DRUGMATRIX: GABAA, Chloride Channel, TBOB radioligand binding (ligand: [3H] TBOB); assay type: cell membranes, Rattus norvegicus, Wistar, Cerebral cortex, Membrane; details: Not Active = under 50% inhibition at 10 µM
[4] = biological target: T2, 3-hydroxy-3-methylglutaryl-coenzyme A reductase (Homo sapiens, UniProt P04035); parameters: species or system Escherichia coli;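 further: enzyme inhibition assay of HMG-CoA reductase using radiolabeled [14C]HMG-CoA as substrate; in other assays of this panel Not Active means under 50% inhibition at 10 µM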
T2 sequence (P04035 whole entry): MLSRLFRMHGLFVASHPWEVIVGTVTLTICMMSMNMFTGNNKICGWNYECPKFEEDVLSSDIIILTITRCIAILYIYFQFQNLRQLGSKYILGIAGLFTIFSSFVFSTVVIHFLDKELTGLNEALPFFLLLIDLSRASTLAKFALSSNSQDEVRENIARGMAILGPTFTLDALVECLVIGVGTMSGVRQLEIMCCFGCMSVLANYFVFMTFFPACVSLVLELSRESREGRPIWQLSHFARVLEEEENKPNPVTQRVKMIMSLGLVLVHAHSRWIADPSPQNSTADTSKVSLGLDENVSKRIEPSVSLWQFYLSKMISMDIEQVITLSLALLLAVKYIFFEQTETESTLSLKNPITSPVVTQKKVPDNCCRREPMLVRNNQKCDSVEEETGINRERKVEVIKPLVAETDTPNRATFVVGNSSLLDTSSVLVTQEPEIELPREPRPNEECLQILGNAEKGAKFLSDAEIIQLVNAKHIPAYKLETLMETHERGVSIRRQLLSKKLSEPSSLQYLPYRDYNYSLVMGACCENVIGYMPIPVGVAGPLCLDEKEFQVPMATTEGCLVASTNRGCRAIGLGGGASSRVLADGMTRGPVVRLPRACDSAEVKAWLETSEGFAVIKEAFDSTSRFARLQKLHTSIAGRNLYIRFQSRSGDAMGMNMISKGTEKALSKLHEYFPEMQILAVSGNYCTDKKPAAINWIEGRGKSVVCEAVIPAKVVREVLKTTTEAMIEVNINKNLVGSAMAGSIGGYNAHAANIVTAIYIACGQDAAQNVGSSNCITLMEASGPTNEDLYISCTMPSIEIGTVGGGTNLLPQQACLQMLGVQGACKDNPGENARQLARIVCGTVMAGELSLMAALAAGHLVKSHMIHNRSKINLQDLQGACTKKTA

[5] = biological target: Platelet-activating factor receptor (Homo sapiens, UniProt P25105); assay: biochemical; assay type: tissue-based; details: platelet; further: in other assays of this panel Not Active means under 50% inhibition at 10 µM
Cytochrome P450 2C19 = Cytochrome P450 2C19 (Homo sapiens, UniProt P33261); details: bti-tn-5b1-4; further: in other assays of this panel Not Active means under 50% inhibition at 10 µM
Cytochrome P450 2D6 = Cytochrome P450 2D6 (Homo sapiens, UniProt P10635); details: bti-tn-5b1-4; further: in other assays of this panel Not Active means under 50% inhibition at 10 µM
Cytochrome P450 2D6, sequence (P10635 whole entry): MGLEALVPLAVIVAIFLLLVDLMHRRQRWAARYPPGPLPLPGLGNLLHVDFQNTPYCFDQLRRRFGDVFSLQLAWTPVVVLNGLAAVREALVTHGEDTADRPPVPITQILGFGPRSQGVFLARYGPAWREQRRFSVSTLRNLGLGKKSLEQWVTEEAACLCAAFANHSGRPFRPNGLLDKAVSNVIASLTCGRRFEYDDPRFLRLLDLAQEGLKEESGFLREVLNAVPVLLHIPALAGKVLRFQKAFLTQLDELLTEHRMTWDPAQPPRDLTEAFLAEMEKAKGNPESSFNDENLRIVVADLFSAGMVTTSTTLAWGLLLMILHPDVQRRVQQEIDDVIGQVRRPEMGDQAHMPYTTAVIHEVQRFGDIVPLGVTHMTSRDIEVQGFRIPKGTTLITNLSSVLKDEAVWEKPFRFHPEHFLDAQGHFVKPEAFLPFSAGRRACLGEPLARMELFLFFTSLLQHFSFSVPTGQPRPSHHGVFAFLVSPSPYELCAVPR

Platelet-activating factor receptor, sequence (P25105 whole entry): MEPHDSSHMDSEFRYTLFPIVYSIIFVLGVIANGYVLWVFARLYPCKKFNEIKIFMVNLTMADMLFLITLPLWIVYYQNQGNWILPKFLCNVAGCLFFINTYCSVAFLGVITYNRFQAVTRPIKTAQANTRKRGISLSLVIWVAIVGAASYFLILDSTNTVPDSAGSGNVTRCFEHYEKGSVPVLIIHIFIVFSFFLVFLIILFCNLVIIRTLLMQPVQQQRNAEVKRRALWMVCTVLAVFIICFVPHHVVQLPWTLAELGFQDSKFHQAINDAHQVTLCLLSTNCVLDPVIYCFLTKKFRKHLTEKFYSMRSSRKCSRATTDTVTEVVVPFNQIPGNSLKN
Cytochrome P450 2C19, sequence (P33261 whole entry): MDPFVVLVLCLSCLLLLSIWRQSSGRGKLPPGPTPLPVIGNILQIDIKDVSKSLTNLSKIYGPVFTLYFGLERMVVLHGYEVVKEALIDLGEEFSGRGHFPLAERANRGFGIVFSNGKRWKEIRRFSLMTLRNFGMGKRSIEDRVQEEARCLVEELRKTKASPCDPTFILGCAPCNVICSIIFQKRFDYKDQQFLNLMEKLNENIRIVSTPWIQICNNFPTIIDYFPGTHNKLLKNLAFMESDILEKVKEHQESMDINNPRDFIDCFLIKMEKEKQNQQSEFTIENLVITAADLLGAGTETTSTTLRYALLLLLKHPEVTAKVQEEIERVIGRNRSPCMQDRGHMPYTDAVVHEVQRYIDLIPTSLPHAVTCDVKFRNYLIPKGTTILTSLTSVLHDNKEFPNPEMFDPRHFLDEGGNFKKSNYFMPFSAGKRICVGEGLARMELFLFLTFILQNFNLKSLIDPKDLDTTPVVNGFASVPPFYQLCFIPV

Row | Compound | IC50 [1] | IC50 [2] | Ki [2] | IC50 [3] | Ki [3] | IC50 [4] | IC50 [5] | IC50 (Cytochrome P450 2C19) | Ki (Cytochrome P450 2C19) | IC50 (Cytochrome P450 2D6) | Ki (Cytochrome P450 2D6) | IC50 ([1]; read-out: IC50) | Ki ([1]; read-out: Ki)
1 | CCOC(=O)[C@H](CCc1ccccc1)N[C@@H](C)C(=O)N1CCC[C@H]1C(=O)O | Not Active | Not Active | Not Active | Not Active | Not Active | Not Active | Not Active | Not Active | Not Active | Not Active | Not Active |  | 
2 | O=C(O)c1cc(=O)c2c(OCC(O)COc3cccc4oc(C(=O)O)cc(=O)c34)cccc2o1 [CROMOLYN] | Not Active | Not Active | Not Active | Not Active | Not Active | Not Active | Not Active | Not Active | Not Active | Not Active | Not Active |  | 
3 | Cc1cccc(Nc2cc(Cl)nc(SCC(=O)O)n2)c1C [PIRINIXIC ACID] | Not Active | Not Active | Not Active | Not Active | Not Active | Not Active | Not Active | Not Active | Not Active | Not Active | Not Active |  | 
4 | CC[C@H]1OC(=O)[C@H](C)[C@@H](O[C@H]2C[C@@](C)(OC)[C@@H](O)[C@H](C)O2)[C@H](C)[C@@H](O[C@@H]2O[C@H](C)C[C@H](N(C)C)[C@H]2O)[C@](C)(OC)C[C@@H](C)C(=O)[C@H](C)[C@@H](O)[C@]1(C)O [CLARITHROMYCIN] | Not Active | Not Active | Not Active | Not Active | Not Active | Not Active | Not Active | Not Active | Not Active | Not Active | Not Active |  | 
5 | CCc1oc2ccccc2c1C(=O)c1cc(Br)c(O)c(Br)c1 [BENZBROMARONE] | Not Active | Not Active | Not Active | Not Active | Not Active | Not Active | Not Active | Not Active | Not Active | Not Active | Not Active |  | 
6 | CC(C)(Oc1ccc(C2CC2(Cl)Cl)cc1)C(=O)O (stereo unspecified) [CIPROFIBRATE] | Not Active | Not Active | Not Active | Not Active | Not Active | Not Active | Not Active | Not Active | Not Active | Not Active | Not Active |  | 
7 | CO[C@H]1[C@@H](O)[C@H](N)[C@@H](O[C@H]2O[C@H]([C@H](C)N)CC[C@H]2N)[C@H](O)[C@@H]1N(C)C(=O)CN [ASTROMICIN] | Not Active | Not Active | Not Active | Not Active | Not Active | Not Active | Not Active | Not Active | Not Active | Not Active | Not Active |  | 
8 | Clc1cc2c(cc1Cl)Oc1cc(Cl)c(Cl)cc1O2 [2,3,7,8-TETRACHLORODIBENZO-P-DIOXIN] | Not Active | Not Active | Not Active | Not Active | Not Active | Not Active | Not Active | Not Active | Not Active | Not Active | Not Active |  | 
9 | CC(C)C[C@H]1C(=O)N2CCC[C@H]2[C@]2(O)O[C@](NC(=O)[C@@H]3C=C4c5cccc6[nH]c(Br)c(c56)C[C@H]4N(C)C3)(C(C)C)C(=O)N12 [BROMOCRIPTINE] |  | Not Active | Not Active | Not Active | Not Active | Not Active | Not Active | Not Active | Not Active | Not Active | Not Active | 3.55 nM | 1.96 nM
10 | COc1ccc2cc(CCC(C)=O)ccc2c1 [NABUMETONE] | Not Active | Not Active | Not Active | Not Active | Not Active | Not Active | Not Active | Not Active | Not Active | Not Active | Not Active |  | 
